Values of other authors, collected in patent US20230310465A1, “NANO LIPID CARRIER SYSTEM FOR IMPROVING PERMEATION OF ACTIVE INGREDIENTS” (LEIUTIS PHARMACEUTICALS LLP, priority 2020, published 2023).

Settings: from Akynezo, healthy subjects

Tmax: about 5 hrs
SMILES: Cc1ccccc1-c1cc(N2CCN(C)CC2)ncc1N(C)C(=O)C(C)(C)c1cc(C(F)(F)F)cc(C(F)(F)F)c1 [Netupitant, 2-[3,5-bis(trifluoromethyl)phenyl]-N,2-dimethyl-N-[4-(2methylphenyl)-6-(4-methylpiperazin-1-yl)pyridin-3-yl]propenamide]
